# Laboratory results as given in EP0513703A2, “Carbamate esters of eseroline having anticholinesterase activity, a process for their preparation and relative pharmaceutical compositions containing them as the active principle” (priority 1991, dated 1992).
# Values joined by “and” are separate entries in the source; they are usually repeats but may differ in a detail not shown here. Identical values can stand only once.
# Key:
# [1] = target: T1, acetylicholinesterase enzyme in the mouse brain (Mus musculus, UniProt P21836); assay: Inhibition of acetylcholinesterase in the mouse brain after single doses (class B derivatives); type: in vivo; details: single doses in the range 0.4-7mg/kg
# T1 construct: from tissue; host or cells: mouse brain
# T1 sequence (P21836 32-614): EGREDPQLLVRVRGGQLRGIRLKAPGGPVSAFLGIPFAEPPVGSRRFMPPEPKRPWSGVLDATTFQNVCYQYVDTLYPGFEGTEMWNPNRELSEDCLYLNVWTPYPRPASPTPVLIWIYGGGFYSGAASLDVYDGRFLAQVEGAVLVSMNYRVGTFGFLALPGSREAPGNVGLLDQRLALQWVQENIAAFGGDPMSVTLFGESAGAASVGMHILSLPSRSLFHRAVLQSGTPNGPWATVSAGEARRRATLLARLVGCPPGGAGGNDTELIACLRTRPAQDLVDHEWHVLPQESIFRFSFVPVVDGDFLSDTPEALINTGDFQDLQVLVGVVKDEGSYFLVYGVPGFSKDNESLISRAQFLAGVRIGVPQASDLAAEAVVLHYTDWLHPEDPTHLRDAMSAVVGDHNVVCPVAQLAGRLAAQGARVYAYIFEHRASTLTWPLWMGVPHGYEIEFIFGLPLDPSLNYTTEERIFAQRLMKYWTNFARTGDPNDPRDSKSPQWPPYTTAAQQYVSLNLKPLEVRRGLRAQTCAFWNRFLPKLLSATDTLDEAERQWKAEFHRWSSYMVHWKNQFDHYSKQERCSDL
# [2] = test system: mice; assay: Toxicity, LD50 by intraperitoneal route (class B derivatives); type: in vivo; details: death within 24 hours of 50% of the tested animals
# From the text: In the following table reported are LD50 values determined on mice for the listed compounds and compared with that of physostigmine administered by the same (intraperitoneal) route.
# [3] = test system: anticholinesterase activity, on the mouse brain; assay: Inhibition of cholinesterase activity on the mouse brain after single doses (class C derivatives); type: in vivo; details: for suppression of the enzymatic activity: even at higher doses; for duration of the inhibitory activity compared with physostigmine: mouse brain; for inhibition of the anticholinesterase activity, on the mouse brain (in words): single doses in the range 0.4-7mg/kg
# [4] = test system: mouse; assay: Toxicity, LD50 by intraperitoneal route (class C derivatives); type: in vivo
# From the text: In the following table reported are the LD50 values determined on mouse for the compounds listed and compared with the corresponding LD50 value for physostigmine, administered by the same (intraperitoneal) route.
# [5] = test system: motor activity; assay: Antagonist effect on the stimulating effect of scopolamine (class C derivatives); type: in vivo; details: scopolamine 1 mg/kg; oral administration
# Experimental: This is countered by the oral administration of 2.5 mg of ES001, ES002, ES003.
# [6] = test system: mouse; assay: Spontaneous motility, Dews method modified according to Carminati (class A derivatives); type: in vivo; details: mouse (Swiss), oral, starting from minimum doses of 4-6 mg/kg
# From the text: (§1) The Dews method was used, modified according to Carminati (Arch. int. Pharmacodyn. et Thér 181, 68,1969).
# [7] = test system: mice (Swiss strain); assay: Acute toxicity, LD50 by oral route in mice (class A derivatives); type: in vivo; details: mouse, suspension in 2 % carboxymethylcellulose, observation 7 days
# From the text: The letal doses 50 (LD50) by oral route (suspension in 2 % carboxymethylcellulose) are reported herinbelow: TABLE 1
# [8] = test system: acetylcholinesterase (AchE); type: in vivo, Wistar male rats; details: rat, oral, 1.5 to 4.5 mg/kg
# [9] = test system: mice (Swiss strain); assay: Acute toxicity, LD50 by oral route in mice (class E derivatives); type: in vivo; details: mouse, suspension in 2 % carboxymethylcellulose, observation 7 days
# From the text: The letal doses 50 (LD50) by oral route (suspension in 2 % carboxymethylcellulose) are reported herinbelow: TABLE 9
# [10] = test system: mouse; assay: Spontaneous motility, Dews method modified according to Carminati (class E derivatives); type: in vivo; details: mouse (Strain Swiss); for decrease of the spontaneous motility (on average): oral, 0.25 mg/kg
# From the text: as §1
compound,measurement,setting,value
CN1CC[C@@]2(C)c3cc(OC(=O)NCCC(=O)O)ccc3N(C)[C@@H]12 [Compound M001],inhibition of acetylicholinesterase enzyme in the mouse brain (in words),[1],"dose -dependence, reversible inhibition"
same,LD50 (mg/kg i.p.),[2],>20 mg/kg i.p. and <40 mg/kg i.p.
CC(CNC(=O)Oc1ccc2c(c1)[C@]1(C)CCN(C)[C@@H]1N2C)C(=O)O (some centres unmarked) [Compound M002],inhibition of acetylicholinesterase enzyme in the mouse brain (in words),[1],"dose -dependence, reversible inhibition"
same,LD50 (mg/kg i.p.),[2],>40 mg/kg i.p. and <80 mg/kg i.p.
CN1CC[C@@]2(C)c3cc(OC(=O)NCCCCCCCCC(=O)O)ccc3N(C)[C@@H]12 [Compound M003],inhibition of acetylicholinesterase enzyme in the mouse brain (in words),[1],"dose -dependence, reversible inhibition"
same,LD50 (mg/kg i.p.),[2],>30 mg/kg i.p. and <60 mg/kg i.p.
CN1CC[C@@]2(C)c3cc(OC(=O)NC(CO)C(=O)O)ccc3N(C)[C@@H]12 (some centres unmarked) [Compound M006],inhibition of acetylicholinesterase enzyme in the mouse brain (in words),[1],"dose -dependence, reversible inhibition"
CN1CC[C@@]2(C)c3cc(OC(=O)NCC(O)CC(=O)O)ccc3N(C)[C@@H]12 (some centres unmarked) [Compound M007],inhibition of acetylicholinesterase enzyme in the mouse brain (in words),[1],"dose -dependence, reversible inhibition"
same,LD50 (mg/kg i.p.),[2],>30 mg/kg i.p. and <60 mg/kg i.p.
CC(CC(=O)O)NC(=O)Oc1ccc2c(c1)[C@]1(C)CCN(C)[C@@H]1N2C (some centres unmarked) [Compound M008],inhibition of acetylicholinesterase enzyme in the mouse brain (in words),[1],"dose -dependence, reversible inhibition"
same,LD50 (mg/kg i.p.),[2],>20 mg/kg i.p. and <40 mg/kg i.p.
CN1CC[C@@]2(C)c3cc(OC(=O)NCCC(O)CC(=O)O)ccc3N(C)[C@@H]12 (some centres unmarked) [Compound M009],inhibition of acetylicholinesterase enzyme in the mouse brain (in words),[1],"dose -dependence, reversible inhibition"
same,LD50 (mg/kg i.p.),[2],>20 mg/kg i.p. and <40 mg/kg i.p.
"CC(O)CNC(=O)Oc1ccc2c(c1)[C@]1(C)CCN(C)[C@@H]1N2C (stereo partly drawn) [ES001, trimethyl-1,3a,8 hexahydro-1,2,3a,8,8a-pyrrol(2,3-b)indol-5(3aS,8aR)2-hydroxypropylcarbamate]",suppression of the enzymatic activity,[3],do not completely suppress the enzymatic activity
same,duration of the inhibitory activity compared with physostigmine,[3],lasts longer than that of physostigmine
same,"inhibition of the anticholinesterase activity, on the mouse brain (in words)",[3],"dose-dependence, reversible inhibition"
same,LD50 (mg/kg i.p),[4],>20 mg/kg i.p and <40 mg/kg i.p
same,oral dose countering the stimulating effect of scopolamine,[5],2.5 mg
"CCCCCCCC/C=C\CCCCCCCC(=O)OC(C)CNC(=O)Oc1ccc2c(c1)[C@]1(C)CCN(C)[C@@H]1N2C (stereo partly drawn) [ES002, trimethyl-1,3a,8 hexahydro-1,2,3a,8,8a-pyrrol(2,3-b)indol-5(3aS,8aR)-2-oleoxypropylcarbamate]",suppression of the enzymatic activity,[3],do not completely suppress the enzymatic activity
same,duration of the inhibitory activity compared with physostigmine,[3],lasts longer than that of physostigmine
same,"inhibition of the anticholinesterase activity, on the mouse brain (in words)",[3],"dose-dependence, reversible inhibition"
same,LD50 (mg/kg i.p),[4],>40 mg/kg i.p and <80 mg/kg i.p
same,oral dose countering the stimulating effect of scopolamine,[5],2.5 mg
"CN1CC[C@@]2(C)c3cc(OC(=O)NCC(C)(O)c4ccccc4)ccc3N(C)[C@@H]12 (stereo partly drawn) [ES004, trimethyl-1,3a,8, hexahydro-1,2,3a, 8,8a-pyrrol (2,3-b) indol-5 (3aS,8aR)-2-hydroxy-2-phenylpropylcarbamate]",LD50 (mg/kg i.p),[4],>10 mg/kg i.p and <15 mg/kg i.p
"CN1CC[C@@]2(C)c3cc(OC(=O)Nc4ccccc4O)ccc3N(C)[C@@H]12 [ES005, trimethyl-1,3a,8 hexahydro-1,2,3a,8,8a-pyrrol(2,3-b)indol-5(3aS,8aR)-2-hydroxy-phenyl-carbamate]",LD50 (mg/kg i.p),[4],>15 mg/kg i.p and <30 mg/kg i.p
"CCCCCCCCCCCCCCCCCC(=O)OC(CCCCCC)CNC(=O)Oc1ccc2c(c1)[C@]1(C)CCN(C)[C@@H]1N2C (stereo partly drawn) [ES007, trimethyl-1,3a,8 hexahydro-1,2,3a,8,8a-pyrrol(2,3-b)indol-5-(3aS,8aR)-2-stearoyloxyoctanylcarbamate]",LD50 (mg/kg i.p),[4],>40 mg/kg i.p and <80 mg/kg i.p
"CN1CC[C@@]2(C)c3cc(OC(=O)NCC(O)CC4CCCCC4)ccc3N(C)[C@@H]12 (stereo partly drawn) [ES008, trimethyl-1,3a,8, hexahydro-1,2,3a,8,-8a pyrrol(2,3-b)indol-5-(3aS,8aR)-3-cyclohexyl-2-hydroxypropylcarbamate]",LD50 (mg/kg i.p),[4],>20 mg/kg i.p and <30 mg/kg i.p
"CC(C)C[C@H](NC(=O)Oc1ccc2c(c1)[C@]1(C)CCN(C)[C@@H]1N2C)C(=O)O [MGS103, (3-aS-cis) 1,2,3,3a,8,8a-hexahydro 1,3a,8-trimethyl pyrrol [2,3-b]-indol-5-ol-L-2(4-methylvaleric acid) carbamate ester]",decrease of the spontaneous motility (on average),[6],~-30%
same,LD50 per os,[7],412.6 ± 46.34 mg/kg
same,inhibitory cerebral and serumal acetylcholinesterase activity (in words),[8],clear inhibitory dose-dependent and reversible
"CC(C)[C@H](NC(=O)Oc1ccc2c(c1)[C@]1(C)CCN(C)[C@@H]1N2C)C(=O)O [MGS104, (3-as-cis) 1,2,3,3a,8,8a-hexahydro 1,3a,8-trimethyl pyrrol [2,3-b]-indol-5-ol-L-(3-methylbutyric acid) carbamate ester]",decrease of the spontaneous motility (on average),[6],~-30%
same,LD50 per os,[7],423.0 ± 35.21 mg/kg
same,inhibitory cerebral and serumal acetylcholinesterase activity (in words),[8],clear inhibitory dose-dependent and reversible
"CN1CC[C@@]2(C)c3cc(OC(=O)NCC(=O)O)ccc3N(C)[C@@H]12 [MGS105, (3-as-cis) 1,2,3,3a,8,8a-hexahydro 1,3a,8-trimethyl pyrrol [2,3-b]-indol-5-ol (acetic acid) carbamate ester]",decrease of the spontaneous motility (on average),[6],~-30%
same,LD50 per os,[7],345.6 ± 24.86 mg/kg
same,inhibitory cerebral and serumal acetylcholinesterase activity (in words),[8],clear inhibitory dose-dependent and reversible
"CN1CC[C@@]2(C)c3cc(OC(=O)NCCCCCCCCNC(=O)Oc4ccc5c(c4)[C@]4(C)CCN(C)[C@@H]4N5C)ccc3N(C)[C@@H]12 [MS002, Salicylate of (3a S-cis) - 1,2,3a,8,8a hexahydro - 1,3a,- trimethyl pyrrol [2,3-b]-indol-5-ol-1,8-octandicarbamate ester]",LD50 per os,[9],48.98 ± 6.31 mg/kg
same,oral dose causing a significant decrease of the spontaneous motility,[10],0.25 mg/kg
same,decrease of the spontaneous motility (on average),[10],~-25%
"CN1CC[C@@]2(C)c3cc(OC(=O)NCCCCCNC(=O)Oc4ccc5c(c4)[C@]4(C)CCN(C)[C@@H]4N5C)ccc3N(C)[C@@H]12 [MS007, (3a S-cis) - 1,2,3,3a,8,8a hexahydro - 1,3a,8 - trimethyl pyrrol [2,3-b]-indol-5-ol-1,5-pentandicarbamate ester]",LD50 per os,[9],64.26 ± 10.29 mg/kg
same,oral dose causing a significant decrease of the spontaneous motility,[10],0.25 mg/kg
same,decrease of the spontaneous motility (on average),[10],~-25%
"CN1CC[C@@]2(C)c3cc(OC(=O)NCCCCCCNC(=O)Oc4ccc5c(c4)[C@]4(C)CCN(C)[C@@H]4N5C)ccc3N(C)[C@@H]12 [MS010, (3a S-cis) - 1,2,3,3a,8,8a hexahydro - 1,3a,8 - trimethyl pyrrol [2,3-b]-indol-5-ol-1,6-hexandicarbamate ester]",LD50 per os,[9],50.65 ± 5.48 mg/kg
same,oral dose causing a significant decrease of the spontaneous motility,[10],0.25 mg/kg
same,decrease of the spontaneous motility (on average),[10],~-25%
"CN1CC[C@@]2(C)c3cc(OC(=O)NCCCCCCCNC(=O)Oc4ccc5c(c4)[C@]4(C)CCN(C)[C@@H]4N5C)ccc3N(C)[C@@H]12 [MS011, (3a S-cis) - 1,2,3,3a,8,8a hexahydro - 1,3a,8 - trimethyl pyrrol [2,3-b]-indol-5-ol-1,7-heptandicarbamate ester]",LD50 per os,[9],63.31 ± 9.32 mg/kg
same,oral dose causing a significant decrease of the spontaneous motility,[10],0.25 mg/kg
same,decrease of the spontaneous motility (on average),[10],~-25%
"trimethyl -1,3a,8-hexahydro-1,2,3a,8,8a-pyrrol(2,3-b)indol-5-(3aS,8aR)12-hydroxystearylpropylcarbamate [ES003]",suppression of the enzymatic activity,[3],do not completely suppress the enzymatic activity
same,duration of the inhibitory activity compared with physostigmine,[3],lasts longer than that of physostigmine
same,"inhibition of the anticholinesterase activity, on the mouse brain (in words)",[3],"dose-dependence, reversible inhibition"
same,LD50 (mg/kg i.p),[4],>40 mg/kg i.p and <80 mg/kg i.p
same,oral dose countering the stimulating effect of scopolamine,[5],2.5 mg
